What was measured:
[1] = target: T1, Full length human TBK1 (Homo sapiens, UniProt Q9UHD2); assay: Inhibition of TBK1 Enzyme (Caliper microfluidic assay); assay type: biochemical; conditions: 25 μM ATP, 60 min at RT; -log(IC50), IC50 molar; read-out: TBK1 Inhibition (pIC50) (converted)
T1 construct: Full length human TBK1 with an N-terminal His-tag; His-tag (N); made in house; host or cells: Sf9 insect cells (baculovirus, pFastBac1)
T1 sequence (Q9UHD2 1-729): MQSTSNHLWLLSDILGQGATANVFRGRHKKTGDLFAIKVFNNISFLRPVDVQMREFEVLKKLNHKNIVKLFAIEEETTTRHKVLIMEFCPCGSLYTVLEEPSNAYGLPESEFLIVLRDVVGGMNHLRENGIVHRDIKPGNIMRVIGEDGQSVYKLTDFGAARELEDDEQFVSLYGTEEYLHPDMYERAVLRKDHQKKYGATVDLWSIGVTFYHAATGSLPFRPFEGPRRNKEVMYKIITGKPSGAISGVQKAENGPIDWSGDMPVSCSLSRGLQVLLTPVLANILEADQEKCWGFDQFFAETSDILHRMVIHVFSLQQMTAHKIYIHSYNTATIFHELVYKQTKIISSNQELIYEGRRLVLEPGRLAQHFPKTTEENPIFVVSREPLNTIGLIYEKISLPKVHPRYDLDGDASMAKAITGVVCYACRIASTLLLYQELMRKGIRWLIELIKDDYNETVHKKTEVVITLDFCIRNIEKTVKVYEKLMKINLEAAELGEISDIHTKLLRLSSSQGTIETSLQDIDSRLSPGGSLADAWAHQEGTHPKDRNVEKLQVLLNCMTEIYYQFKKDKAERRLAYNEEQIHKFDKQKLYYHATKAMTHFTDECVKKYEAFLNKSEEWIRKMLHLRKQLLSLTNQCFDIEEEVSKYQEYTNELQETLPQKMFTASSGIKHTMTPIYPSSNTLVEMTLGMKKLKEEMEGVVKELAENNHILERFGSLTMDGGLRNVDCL
Procedure, shortened: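 Enzyme: His-tagged full-length TBK1 expressed in Sf9. Reaction 60 min at RT in 20 mM Hepes pH 7.4, 10 mM MgCl2, 1 mM EDTA, 0.01% Brij-L23, 1 mM DTT, with 5FAM-peptide (added at 1 μM) and TBK1/ATP mix (added at 3 nM/25 μM), then EDTA-quenched. Conversion measured by microfluidic separation; 11-point 2.5-fold series fit to pIC50.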

[2] = target: T2, TBK1 (Homo sapiens, UniProt Q9UHD2); assay: Inhibition of TBK1 in Cells (TLR3 driven ISRE β-lactamase reporter assay); assay type: cell-based; conditions: poly IC-LMW stimulation 16 hrs; -log(EC50), EC50 molar; read-out: Inhibition of TBK1 in cells pEC50 (EC) (converted)
T2 construct: host or cells: RA1-ISRE beta-lactamase reporter cells
T2 sequence (Q9UHD2 1-729): T1 sequence (Q9UHD2 1-729)
Procedure, shortened: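 RA1-ISRE β-lactamase reporter cells (50,000/well) treated with 11-point 2.5-fold compound dilutions and stimulated with 0.15 mg/ml poly IC-LMW for 16 hrs. Reporter read by CCF4-AM FRET; EC50 from non-linear fit of percent inhibition, reported as pEC50 (molar).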

Row | IC50 [1] | EC50 [2] | Compound
1 | 50.1 nM | 1120 nM | O=C(NCCC(F)(F)F)c1nc(-c2ccc3nc(NC(=O)C4CC4)cn3c2)cs1 [Example 92, 4-(2-(cyclopropanecarboxamido)imidazo[1,2-a]pyridin-6-yl)-N-(3,3,3-trifluoropropyl)thiazole-2-carboxamide]
2 | 7.94 nM | 110 nM | O=C(Nc1cn2cc(-c3csc(C(=O)N4CCC[C@@H]4C(F)(F)F)n3)ccc2n1)C1CC1 [Example 93, (R)-N-(6-(2-(2-(trifluoromethyl)pyrrolidine-1-carbonyl)thiazol-4-yl)imidazo[1,2-a]pyridin-2-yl)cyclopropanecarboxamide]
3 | 200 nM | 5500 nM | O=C(NC1CCOC1=O)c1nc(-c2ccc3nc(NC(=O)C4CC4)cn3c2)cs1 (stereo not shown) [Example 94, 4-(2-(cyclopropanecarboxamido)imidazo[1,2-a]pyridin-6-yl)-N-(2-oxotetrahydrofuran-3-yl)thiazole-2-carboxamide]
4 | 63.1 nM | 851 nM | O=C(Nc1cn2cc(-c3csc(C(=O)N4CC(F)(F)C[C@H]4CO)n3)ccc2n1)C1CC1 [Example 96, (S)-N-(6-(2-(4,4-difluoro-2-(hydroxymethyl)pyrrolidine-1-carbonyl)thiazol-4-yl)imidazo[1,2-a]pyridin-2-yl)cyclopropanecarboxamide]
5 | 126 nM | 1550 nM | COC1CCN(C(=O)c2nc(-c3ccc4nc(NC(=O)C5CC5)cn4c3)cs2)C1 (stereo not shown) [Example 97, N-(6-(2-(3-methoxypyrrolidine-1-carbonyl)thiazol-4-yl)imidazo[1,2-a]pyridin-2-yl)cyclopropanecarboxamide]
6 | 200 nM | 14500 nM | NC(=O)C1CCN(C(=O)c2nc(-c3ccc4nc(NC(=O)C5CC5)cn4c3)cs2)C1 (stereo not shown) [Example 98, 1-(4-(2-(cyclopropanecarboxamido)imidazo[1,2-a]pyridin-6-yl)thiazole-2-carbonyl)pyrrolidine-3-carboxamide]
7 | 200 nM | 776 nM | N#CC1CN(C(=O)c2nc(-c3ccc4nc(NC(=O)C5CC5)cn4c3)cs2)C1 [Example 102, N-(6-(2-(3-cyanoazetidine-1-carbonyl)thiazol-4-yl)imidazo[1,2-a]pyridin-2-yl)cyclopropanecarboxamide]
8 | 79.4 nM | 794 nM | CC1CCN(C(=O)c2nc(-c3ccc4nc(NC(=O)C5CC5)cn4c3)cs2)C1 (stereo not shown) [Example 103, N-(6-(2-(3-methylpyrrolidine-1-carbonyl)thiazol-4-yl)imidazo[1,2-a]pyridin-2-yl)cyclopropanecarboxamide]
9 | 5.01 nM | 166 nM | C[C@@H](NC(=O)c1cc(-c2ccc3nc(NC(=O)C4CC4)cn3c2)n[nH]1)C(F)(F)F [Example 104, (R)-3-(2-(cyclopropanecarboxamido)imidazo[1,2-a]pyridin-6-yl)-N-(1,1,1-trifluoropropan-2-yl)-1H-pyrazole-5-carboxamide]
10 | 316 nM | 5370 nM | O=C(Nc1cn2cc(-c3cc(C(=O)N4CCC(F)CC4)[nH]n3)ccc2n1)C1CC1 [Example 105, N-(6-(5-(4-fluoropiperidine-1-carbonyl)-1H-pyrazol-3-yl)imidazo[1,2-a]pyridin-2-yl)cyclopropanecarboxamide]
11 | 31.6 nM | 589 nM | CN(CC(F)(F)F)C(=O)c1cc(-c2ccc3nc(NC(=O)C4CC4)cn3c2)n[nH]1 [Example 106, 3-(2-(cyclopropanecarboxamido)imidazo[1,2-a]pyridin-6-yl)-N-methyl-N-(2,2,2-trifluoroethyl)-1H-pyrazole-5-carboxamide]
12 | 63.1 nM | 2750 nM | O=C(Nc1cn2cc(-c3cc(C(=O)N4CCC(F)C4)[nH]n3)ccc2n1)C1CC1 (stereo not shown) [Example 107, N-(6-(5-(3-fluoropyrrolidine-1-carbonyl)-1H-pyrazol-3-yl)imidazo[1,2-a]pyridin-2-yl)cyclopropanecarboxamide]
13 | 79.4 nM | 4370 nM | O=C(N[C@H]1COC[C@H]1O)c1nc(-c2ccc3nc(NC(=O)C4CC4)cn3c2)cs1 [Example 108, 4-(2-(cyclopropanecarboxamido)imidazo[1,2-a]pyridin-6-yl)-N-((3S,4S)-4-hydroxytetrahydrofuran-3-yl)thiazole-2-carboxamide]
14 | 63.1 nM | 3240 nM | O=C(NC1COCC1O)c1nc(-c2ccc3nc(NC(=O)C4CC4)cn3c2)cs1 (stereo not shown) [Example 109, 4-(2-(cyclopropanecarboxamido)imidazo[1,2-a]pyridin-6-yl)-N-(4-hydroxytetrahydrofuran-3-yl)thiazole-2-carboxamide]
15 | 79.4 nM | 4370 nM | O=C(Nc1cn2cc(-c3csc(C(=O)N4CCC(O)C4)n3)ccc2n1)C1CC1 (stereo not shown) [Example 112, N-(6-(2-(3-hydroxypyrrolidine-1-carbonyl)thiazol-4-yl)imidazo[1,2-a]pyridin-2-yl)cyclopropanecarboxamide]
16 | 126 nM | 2690 nM | O=C(Nc1cn2cc(-c3csc(C(=O)N4CC(O)C4)n3)ccc2n1)C1CC1 [Example 113, N-(6-(2-(3-hydroxyazetidine-1-carbonyl)thiazol-4-yl)imidazo[1,2-a]pyridin-2-yl)cyclopropanecarboxamide]
17 | 158 nM | 1620 nM | O=C(Nc1cn2cc(-c3csc(C(=O)N4CCCC4CO)n3)ccc2n1)C1CC1 (stereo not shown) [Example 114, N-(6-(2-(2-(hydroxymethyl)pyrrolidine-1-carbonyl)thiazol-4-yl)imidazo[1,2-a]pyridin-2-yl)cyclopropanecarboxamide]
18 | 79.4 nM | 1510 nM | O=C(NCC(O)C(F)(F)F)c1nc(-c2ccc3nc(NC(=O)C4CC4)cn3c2)cs1 (stereo not shown) [Example 115, 4-(2-(cyclopropanecarboxamido)imidazo[1,2-a]pyridin-6-yl)-N-(3,3,3-trifluoro-2-hydroxypropyl)thiazole-2-carboxamide]
19 | 200 nM | 3020 nM | O=C(Nc1cn2cc(-c3cc(C(=O)N4CCCC4)[nH]n3)ccc2n1)C1CC1 [Example 116]
20 | 50.1 nM | 6460 nM | CC(C)C(NC(=O)c1cc(-c2ccc3nc(NC(=O)C4CC4)cn3c2)cs1)C(F)(F)F (stereo not shown) [Example 117, 4-(2-(cyclopropanecarboxamido)imidazo[1,2-a]pyridin-6-yl)-N-(1,1,1-trifluoro-3-methylbutan-2-yl)thiophene-2-carboxamide]
21 | 31.6 nM | 676 nM | O=C(NC1(C(F)(F)F)CC1)c1cc(-c2ccc3nc(NC(=O)C4CC4)cn3c2)cs1 [Example 118, 4-(2-(cyclopropanecarboxamido)imidazo[1,2-a]pyridin-6-yl)-N-(1-(trifluoromethyl)cyclopropyl)thiophene-2-carboxamide]
22 | 10 nM | 331 nM | O=C(Nc1cn2cc(-c3csc(C(=O)N(CCCO)CC(F)(F)F)c3)ccc2n1)C1CC1 [Example 119, 4-(2-(cyclopropanecarboxamido)imidazo[1,2-a]pyridin-6-yl)-N-(3-hydroxypropyl)-N-(2,2,2-trifluoroethyl)thiophene-2-carboxamide]
23 | 158 nM | 851 nM | O=C(Nc1cn2cc(-c3csc(C(=O)N(CCO)CC(F)(F)F)c3)ccc2n1)C1CC1 [Example 120, 4-(2-(cyclopropanecarboxamido)imidazo[1,2-a]pyridin-6-yl)-N-(2-hydroxyethyl)-N-(2,2,2-trifluoroethyl)thiophene-2-carboxamide]
24 | 39.8 nM | 1120 nM | COCCN(CC(F)F)C(=O)c1cc(-c2ccc3nc(NC(=O)C4CC4)cn3c2)cs1 [Example 121, 4-(2-(cyclopropanecarboxamido)imidazo[1,2-a]pyridin-6-yl)-N-(2,2-difluoroethyl)-N-(2-methoxyethyl)thiophene-2-carboxamide]
25 | 126 nM | 3720 nM | O=C(NC1COC1)c1nc(-c2ccc3nc(NC(=O)C4CC4)cn3c2)cs1 [Example 122, 4-(2-(cyclopropanecarboxamido)imidazo[1,2-a]pyridin-6-yl)-N-(oxetan-3-yl)thiazole-2-carboxamide]
26 | 100 nM | 2190 nM | CC1CCCN1C(=O)c1cc(-c2ccc3nc(NC(=O)C4CC4)cn3c2)n[nH]1 (stereo not shown) [Example 123, N-(6-(5-(2-methylpyrrolidine-1-carbonyl)-1H-pyrazol-3-yl)imidazo[1,2-a]pyridin-2-yl)cyclopropanecarboxamide]

From US9598424B2 (Takeda Pharmaceutical Company Limited, priority 2014, dated 2017)
